Measurements published in ChEMBL document CHEMBL4420076, “Amylin and calcitonin receptor agonist” (2017).
Numbered stars: 1 amine (or outer) side, 2 acyl side, 3 side chain; on linkers, the order of the positions; unused ones are H or OH. Peptide text beside a SMILES is read from it. * marks the point of attachment. C20 diacid = O=C(O)CCCCCCCCCCCCCCCCCCC(=O)*; C18 diacid = O=C(O)CCCCCCCCCCCCCCCCC(=O)*; γGlu = O=C(O)[C@H](CCC(=O)[*:2])N[*:1]

Tests used:
[1] = biological target: T1, Amylin receptor AMY3; CALCR/RAMP3 (Homo sapiens, UniProt O60896+P30988); assay: Agonist activity at human amylin receptor expressed in BHK570 cells co-expressing RAMP3 assessed as increase in intracellular cAMP concentration incubated for 3 hrs in absence of albumin by CRE luciferase reporter gene assay; type: functional, cell-based
T1 sequence (P30988 whole entry): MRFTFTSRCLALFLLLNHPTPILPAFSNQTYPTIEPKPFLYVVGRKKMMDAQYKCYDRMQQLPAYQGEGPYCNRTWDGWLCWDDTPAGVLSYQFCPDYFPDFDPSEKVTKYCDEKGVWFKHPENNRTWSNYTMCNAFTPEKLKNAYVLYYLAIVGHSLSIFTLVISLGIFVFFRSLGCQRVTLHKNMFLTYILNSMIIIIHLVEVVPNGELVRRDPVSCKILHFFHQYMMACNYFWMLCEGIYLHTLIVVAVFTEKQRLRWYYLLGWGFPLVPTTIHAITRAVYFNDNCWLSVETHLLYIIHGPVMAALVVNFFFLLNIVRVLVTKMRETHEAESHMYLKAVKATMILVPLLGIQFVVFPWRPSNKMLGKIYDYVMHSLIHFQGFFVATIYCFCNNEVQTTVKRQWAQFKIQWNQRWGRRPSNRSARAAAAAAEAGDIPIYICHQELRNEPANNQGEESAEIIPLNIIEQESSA
T1 sequence (O60896 whole entry): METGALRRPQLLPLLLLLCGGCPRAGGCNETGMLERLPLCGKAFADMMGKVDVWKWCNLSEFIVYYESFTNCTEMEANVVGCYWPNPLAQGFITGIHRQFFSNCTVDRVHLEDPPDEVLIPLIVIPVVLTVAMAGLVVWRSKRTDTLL

Calcitonin receptor [2] = biological target: T2, Calcitonin receptor (Homo sapiens, UniProt P30988); assay: Agonist activity at human calcitonin receptor expressed in BHK570 cells assessed as increase in intracellular cAMP concentration incubated for 3 hrs in absence of albumin by CRE luciferase reporter gene assay; type: functional, cell-based
T2 sequence (P30988 whole entry): T1 sequence (P30988 whole entry)

[3] = biological target: T1, Amylin receptor AMY3; CALCR/RAMP3; assay: Agonist activity at human amylin receptor expressed in BHK570 cells co-expressing RAMP3 assessed as increase in intracellular cAMP concentration incubated for 3 hrs in presence of 10% FBS by CRE luciferase reporter gene assay; type: functional, cell-based
Calcitonin receptor [4] = biological target: T2, Calcitonin receptor; assay: Agonist activity at human calcitonin receptor expressed in BHK570 cells assessed as increase in intracellular cAMP concentration incubated for 3 hrs in presence of 10% FBS by CRE luciferase reporter gene assay; type: functional, cell-based
[5] = Solubility in 100 mM glycylglycine buffer at pH 3.0 incubated for 18 hrs by UPLC analysis; type: physicochemical
[6] = Solubility in 100 mM glycylglycine buffer at pH 4.0 incubated for 18 hrs by UPLC analysis; type: physicochemical
[7] = Solubility in 100 mM bistrispropane buffer at pH 6.0 incubated for 18 hrs by UPLC analysis; type: physicochemical
[8] = Solubility in 100 mM glycylglycine buffer at pH 5.0 incubated for 18 hrs by UPLC analysis; type: physicochemical
[9] = Solubility in 100 mM bistrispropane buffer at pH 6.5 incubated for 18 hrs by UPLC analysis; type: physicochemical
[10] = Solubility in 100 mM bistrispropane buffer at pH 7.0 incubated for 18 hrs by UPLC analysis; type: physicochemical
[11] = Solubility in 100 mM bistrispropane buffer at pH 7.5 incubated for 18 hrs by UPLC analysis; type: physicochemical
[12] = Solubility in 100 mM bistrispropane buffer at pH 8.0 incubated for 18 hrs by UPLC analysis; type: physicochemical
[13] = biological target: T1, Amylin receptor AMY3; CALCR/RAMP3; assay: Displacement of [125I]-labeled rat amylin from human amylin receptor expressed in BHK tkts13 whole cells co-expressing RAMP3 incubated for 60 mins by scintillation proximity assay; type: cell-based

EC50 [1] [nM] | EC50 (Calcitonin receptor [2]) [nM] | EC50 [3] [nM] | EC50 (Calcitonin receptor [4]) [nM] | solubility at 18 h [5] [µM] | solubility at 18 h [6] [µM] | solubility at 18 h [7] [µM] | solubility at 18 h [8] [µM] | solubility at 18 h [9] [µM] | solubility at 18 h [10] [µM] | solubility at 18 h [11] [µM] | solubility at 18 h [12] [µM] | IC50 [13] [nM] | SMILES
0.01 | 0.014 | 0.017 | 0.011 | ≥ 200 | ≥ 200 | ≥ 200 | ≥ 200 | ≥ 200 | ≥ 200 | ≥ 200 | ≥ 200 | 0.764 | CC(C)C[C@H](NC(=O)[C@H](CCC(=O)O)NC(=O)[C@H](Cc1cnc[nH]1)NC(=O)[C@H](CC(C)C)NC(=O)[C@H](CCC(=O)O)NC(=O)[C@H](C)NC(=O)[C@H](CO)NC(=O)[C@H](CC(C)C)NC(=O)[C@H](CCCNC(=N)N)NC(=O)CNC(=O)[C@H](CC(C)C)NC(=O)[C@@H](NC(=O)[C@H](C)NC(=O)[C@@H](NC(=O)[C@H](CO)NC(=O)[C@H](CC(C)C)NC(=O)[C@H](CCC(=O)O)NC(=O)[C@H](CO)NC(=O)[C@H](C)NC(=O)CC[C@H](NC(=O)CCCCCCCCCCCCCCCCC(=O)O)C(=O)O)[C@@H](C)O)C(C)C)C(=O)N[C@@H](C)C(=O)N[C@H](C(=O)N[C@@H](CC(C)C)C(=O)N1CCC[C@H]1C(=O)N[C@@H](CCCNC(=N)N)C(=O)N[C@H](C(=O)N[C@@H](CCC(=O)O)C(=O)N[C@H](C(=O)NCC(=O)N[C@@H](CO)C(=O)NCC(=O)N[C@@H](CO)C(=O)N1CCC[C@H]1C(N)=O)[C@@H](C)O)[C@@H](C)O)[C@@H](C)O ({C18 diacid-γGlu}-ASELSTAVLGRLSAELHELATLPRTETGSGSP-NH2)
0.065 | 0.032 | 0.052 | 0.013 | ≥ 200 | ≥ 200 | ≥ 200 | ≥ 200 | ≥ 200 | ≥ 200 | ≥ 200 | ≥ 200 | 2.15 | CC(C)C[C@H](NC(=O)[C@H](CCC(=O)O)NC(=O)[C@H](Cc1cnc[nH]1)NC(=O)[C@H](CC(C)C)NC(=O)[C@H](CCC(=O)O)NC(=O)[C@H](C)NC(=O)[C@H](CO)NC(=O)[C@H](CC(C)C)NC(=O)[C@H](CCCNC(=N)N)NC(=O)CNC(=O)[C@H](CC(C)C)NC(=O)[C@@H](NC(=O)[C@H](C)NC(=O)[C@@H](NC(=O)[C@@H](NC(=O)[C@H](CC(C)C)NC(=O)[C@H](CCC(=O)O)NC(=O)[C@H](CO)NC(=O)[C@H](C)NC(=O)CC[C@H](NC(=O)CCCCCCCCCCCCCCCCC(=O)O)C(=O)O)[C@@H](C)O)[C@@H](C)O)C(C)C)C(=O)N[C@@H](C)C(=O)N[C@H](C(=O)N[C@@H](CC(C)C)C(=O)N1CCC[C@H]1C(=O)N[C@@H](CCCNC(=N)N)C(=O)N[C@H](C(=O)N[C@@H](CCC(=O)O)C(=O)N[C@H](C(=O)NCC(=O)N[C@H](C(=O)NCC(=O)N[C@H](C(=O)N1CCC[C@H]1C(N)=O)[C@@H](C)O)[C@@H](C)O)[C@@H](C)O)[C@@H](C)O)[C@@H](C)O ({C18 diacid-γGlu}-ASELTTAVLGRLSAELHELATLPRTETGTGTP-NH2)
0.038 | 0.042 | 0.071 | 0.045 | ≥ 200 | ≥ 200 | ≥ 200 | ≥ 200 | ≥ 200 | ≥ 200 | ≥ 200 | ≥ 200 | 0.111 | CC(C)C[C@H](NC(=O)CNC(=O)[C@H](CO)NC(=O)[C@H](C)NC(=O)CC[C@H](NC(=O)CCCCCCCCCCCCCCCCCCC(=O)O)C(=O)O)C(=O)N[C@@H](CO)C(=O)N[C@H](C(=O)N[C@@H](C)C(=O)N[C@@H](C)C(=O)N[C@@H](CC(C)C)C(=O)NCC(=O)N[C@@H](CCCNC(=N)N)C(=O)N[C@@H](CC(C)C)C(=O)N[C@@H](CO)C(=O)N[C@@H](C)C(=O)N[C@@H](CCC(=O)O)C(=O)N[C@@H](CC(C)C)C(=O)N[C@@H](Cc1cnc[nH]1)C(=O)N[C@@H](CCC(=O)O)C(=O)N[C@@H](CC(C)C)C(=O)N[C@@H](C)C(=O)N[C@H](C(=O)N[C@@H](Cc1ccc(O)cc1)C(=O)N1CCC[C@H]1C(=O)N[C@@H](CCCNC(=N)N)C(=O)N[C@H](C(=O)N[C@@H](CCC(=O)O)C(=O)N[C@H](C(=O)NCC(=O)N[C@@H](CO)C(=O)NCC(=O)N[C@@H](CO)C(=O)N1CCC[C@H]1C(N)=O)[C@@H](C)O)[C@@H](C)O)[C@@H](C)O)[C@@H](C)O ({C20 diacid-γGlu}-ASGLSTAALGRLSAELHELATYPRTETGSGSP-NH2)
0.012 | 0.014 | 0.143 | 0.074 | ≥ 200 | ≥ 200 | ≥ 200 | ≥ 200 | ≥ 200 | ≥ 200 | ≥ 200 | ≥ 200 | 1.59 | CC(C)C[C@H](NC(=O)[C@H](C)NC(=O)[C@H](C)NC(=O)[C@@H](NC(=O)[C@H](CO)NC(=O)[C@H](CC(C)C)NC(=O)[C@H](CCC(=O)O)NC(=O)[C@H](CO)NC(=O)[C@H](C)NC(=O)[C@H](CCC(=O)O)NC(=O)CC[C@H](NC(=O)CCCCCCCCCCCCCCCCCCC(=O)O)C(=O)O)[C@@H](C)O)C(=O)NCC(=O)N[C@@H](CCCNC(=N)N)C(=O)N[C@@H](CC(C)C)C(=O)N[C@@H](CO)C(=O)N[C@@H](C)C(=O)N[C@@H](CCC(=O)O)C(=O)N[C@@H](CC(C)C)C(=O)N[C@@H](Cc1cnc[nH]1)C(=O)N[C@@H](CCC(=O)O)C(=O)N[C@@H](CC(C)C)C(=O)N[C@@H](C)C(=O)N[C@H](C(=O)N[C@@H](Cc1ccc(O)cc1)C(=O)N1CCC[C@H]1C(=O)N[C@@H](CCCNC(=N)N)C(=O)N[C@H](C(=O)N[C@@H](CCC(=O)O)C(=O)N[C@H](C(=O)NCC(=O)N[C@@H](CO)C(=O)NCC(=O)N[C@@H](CO)C(=O)N1CCC[C@H]1C(N)=O)[C@@H](C)O)[C@@H](C)O)[C@@H](C)O ({C20 diacid-γGlu}-EASELSTAALGRLSAELHELATYPRTETGSGSP-NH2)
0.024 | 0.028 | 0.064 | 0.034 | ≥ 200 | ≥ 200 | ≥ 200 | – | ≥ 200 | ≥ 200 | ≥ 200 | ≥ 200 | 11.8 | CC(C)C[C@H](NC(=O)CC[C@H](NC(=O)CCCCCCCCCCCCCCCCCCC(=O)O)C(=O)O)C(=O)N[C@@H](CO)C(=O)NCC(=O)N[C@@H](CC(C)C)C(=O)N[C@@H](CO)C(=O)N[C@H](C(=O)N[C@@H](C)C(=O)N[C@H](C(=O)N[C@@H](CC(C)C)C(=O)NCC(=O)N[C@@H](CCCNC(=N)N)C(=O)N[C@@H](CC(C)C)C(=O)N[C@@H](CO)C(=O)N[C@@H](C)C(=O)N[C@@H](CCC(=O)O)C(=O)N[C@@H](CC(C)C)C(=O)N[C@@H](Cc1cnc[nH]1)C(=O)N[C@@H](CCC(=O)O)C(=O)N[C@@H](CC(C)C)C(=O)N[C@@H](CO)C(=O)N[C@H](C(=O)N[C@@H](Cc1ccc(O)cc1)C(=O)N1CCC[C@H]1C(=O)N[C@@H](CCCNC(=N)N)C(=O)N[C@H](C(=O)N[C@@H](CCC(=O)O)C(=O)N[C@H](C(=O)NCC(=O)N[C@@H](CO)C(=O)NCC(=O)N[C@H](C(=O)N[C@@H](Cc1ccc(O)cc1)C(N)=O)[C@@H](C)O)[C@@H](C)O)[C@@H](C)O)[C@@H](C)O)C(C)C)[C@@H](C)O ({C20 diacid-γGlu}-LSGLSTAVLGRLSAELHELSTYPRTETGSGTY-NH2)
